Measurements as given in patent publication US8168628B2, “Conjugated psychotropic drugs and uses thereof” (Ramot at Tel-Aviv University Ltd., priority 2001, dated 2012).
Counter-ions that a name gives are not always drawn.

What was measured:
[1] = test system: HL 60 MX2 (MDR); experiment: Proliferation test, HL 60 MX2 (MDR) cells; type: cell-based; conditions: Homo sapiens, HL60/MX2; linear regression of survival percentage
Description: (§1) Cell lines: Human prostate carcinoma (PC-3), human colon carcinoma (HT-29), murine melanoma (B-16) and its drug resistant subclone (B-16 MDR), mouse fibroblasts (3T3), myeloid leukemia (HL 60) and its drug resistant subclone (HL 60 MX2), endometrium cell line (MES SA) and its drug resistant subclone (MES DX5), jurkat T lymphoma and monocyte leukemia (U-937), were used in this study.
(§2) Proliferation of cancer and normal cells: Proliferation was measured by neutral red assay or by a fluorometric assay quantitating DNA content. In the neutral red assay, the neutral red is absorbed by lysosomes, thus causing coloring of living cells. Quantitative analysis is performed by colorimetric assay (ELISA reader at 550 nm). In the fluorometric assay, alamar blue is used as a redox indicator. Alamar blue fluorescence was measured at an excitation wavelength of 544 nm and an emission wavelength of […] (FLUOstar BMG Lab Technologies, Offenburg, Germany).
(§3) The cells were sub-cultured and the tested compounds were added thereto in increasing concentrations. The IC50 values were determined by linear regression of the survival percentage of the cells.

[2] = test system: Normal rat fibroblasts; experiment: Proliferation test, normal rat fibroblasts; type: cell-based; conditions: Fibroblast, linear regression of survival percentage
Description: The primary cultures of rat fibroblasts were obtained from neonatal rats using known procedures.
as §2, §3

[3] = test system: prolactin; experiment: Prolactin blood level in rats (enzyme immunometric assay); type: in vivo, rat
Text: Prolactin secretion: Typical neuroleptics induce hyperprolactinemia, which is frequently associated with gallactorehea and impaired gonadal and sexual function. The measurement of the circulatory plasma prolactin level was therefore used as a sensitive biochemical marker for the psychotropic activity of the known neuroleptics and the chemical conjugates of the present invention, following intraperitoneal or oral administration thereof. Thus, blood was collected from the punctured eye orbital of rats under ether anesthesia and the assay was performed using Millennia, rat prolactin enzyme immunometric assay-kit (DPC, USA).

[4] = test system: C6 rat glioma cells; experiment: Chemosensitization in C6 rat glioma cells; type: cell-based
Description: Chemosensitization: The chemosensitizing effect of perphenazine and its chemical conjugate AN 168 was measured in vitro. Various concentrations of perphenazine or AN 168 were co-administered together with a chemotherapeutic agent to either C6 rat glioma cells or to Jurkat T lymphoma cells. Cells viability and/or DNA fragmentation following treatment with either the chemotherapeutic agent, perphenazine, AN 168, a combination of the chemotherapeutic agent and perphenazine or a combination of a chemotherapeutic agent with AN 168 were measured as described hereinabove.

[5] = test system: B16; experiment: Proliferation test, B16 melanoma cells; type: cell-based, murine
Description: as §1, §2, §3

[6] = test system: MES SA; experiment: Proliferation test, MES SA cells; type: cell-based; conditions: Homo sapiens, linear regression of survival percentage
Description: as §1, §2, §3

[7] = test system: rats; experiment: Behavioral criteria: sedation and mobility score in rats; conditions: score 0-3; for Sedation score: oral, 4-6 hours after treatment
Description: The effect of the administration of the tested compound on animals behavior was measured by evaluating the degree of animal sedation and mobility following the treatment described hereinabove, using a score of from 0 to 3. A score of 0 represents active and mobile animals, 1 represents calm and mobile animals, 2 represents calm and immobile animals and 3 represents completely ataxic and non-alert animals.

[8] = test system: HT-29; experiment: Proliferation test, HT-29 cells; type: cell-based; conditions: Homo sapiens, linear regression of survival percentage
Description: as §1, §2, §3

[9] = test system: MES SA DX5 (MDR); experiment: Proliferation test, MES SA DX5 (MDR) cells; type: cell-based; conditions: Homo sapiens, linear regression of survival percentage
Description: as §1, §2, §3

For `NCCCC(=O)OCCN1CCN(CCCN2c3ccccc3Sc3ccc(Cl)cc32)CC1` [AN-168, Perphenazine 4-aminobutyrate Trihydrochloride], the IC50 [1] was 18.4 µM, the IC50 [2] was 45.8 µM and the “time at which prolactin blood level peaked” value ([3]; i.p., measured at 0, 60 and 120 min after treatment) was 60 min. For the same compound, the “prolactin blood level compared with perphenazine” value ([3]; oral, higher dose, 0, 90, 180 min (FIG. 12)) was “much higher as compared with animals treated with perphenazine”, the “chemosensitizing effect, co-administration with Vincistine” value ([4]; 24 hours, Vincistine 30 μM, conjugate even at 5 μM (FIG. 16)) was “substantially enhance the cytotoxic effect thereof” and the “cells viability, combined treatment of Cisplatin and AN 168” value ([4]; Cisplatin 5-50 μM plus 10 and 15 μM AN 168, neutral red (FIG. 17)) was “rendered the cells susceptible to the chemotherapeutic drug”. For the same compound, the IC50 ([5]; Mus musculus, B16, linear regression of survival percentage) was 26.8 ± 1.8 µM, the “effect on the proliferation of B16 murine melanoma cells” value ([5]; representative experiment (FIG. 13)) was “relatively active as anti-proliferative drugs” and the IC50 [6] was 18.2 µM. For the same compound, the “sedation and mobility score, 30 min” value ([7]; i.p., 5 mg/kg perphenazine, 7.5 mg/kg fluphenazine or equimolar conjugate, 30 min) was 0, the “sedation and mobility score, 60 min” value ([7]; i.p., 5 mg/kg perphenazine, 7.5 mg/kg fluphenazine or equimolar conjugate, 60 min) was 0 and the “sedation and mobility score, 90 min” value ([7]; i.p., 5 mg/kg perphenazine, 7.5 mg/kg fluphenazine or equimolar conjugate, 90 min) was 1. The “sedation and mobility score, 120 min” value ([7]; i.p., 5 mg/kg perphenazine, 7.5 mg/kg fluphenazine or equimolar conjugate, 120 min) was 1, the “sedation and mobility score, 180 min” value ([7]; i.p., 5 mg/kg perphenazine, 7.5 mg/kg fluphenazine or equimolar conjugate, 180 min) was 1 and the “sedation and mobility score, 240 min” value ([7]; i.p., 5 mg/kg perphenazine, 7.5 mg/kg fluphenazine or equimolar conjugate, 240 min) was 1. It also gave a Sedation score ([7]; 3.5 mg/kg) of 0, a Sedation score ([7]; 7 mg/kg) of 0 and a Sedation score ([7]; 14 mg/kg) of 1. It also gave a Sedation score ([7]; 28 mg/kg) of 2, an IC50 [8] of 23.1 ± 9 µM and an IC50 [9] of 17.2 µM.
